Experimental data from patent US20220118116A1, “ADHESIVE/ADSORPTION SWITCH ON NANOPARTICLES TO INCREASE TUMOR UPTAKE AND DELAY TUMOR CLEARANCE” (The Johns Hopkins University, priority 2019, published 2022).
Where two headings read alike, the source gives them in different places.

Tests used:
MDA-MB-231 (ALN2) = experiment: IC50 on cell monolayers (MTT assay); format: cell-based, human; conditions: 6-hour incubation, read-out: IC50 of free cisplatin
Method: (§1) To determine the IC50 of liposomal cisplatin and of free cisplatin, 20,000 cells per well were plated in 96-well plates. A range of concentrations of sterilized liposomes (containing or not cisplatin) or of free cisplatin was added to the wells mixed in media (with 10% FBS) at pH 7.4 and pH 6.5. Upon completion of a 6-hour incubation, cells were washed twice with PBS, and 10% FBS-supplemented fresh media was then added to wells. After two doubling times an MTT assay (Promega, Madison, Wis.) was used (following the vendor's instructions) to evaluate percent cell viability. Absorbance was read at 570 nm.
as §1, with “sterile” for “sterilized”, “6 hour” for “6-hour”

MDA-MB-231 (ATCC) = experiment: IC50 on cell monolayers (MTT assay); format: cell-based, human; conditions: 6-hour incubation, read-out: IC50 of free cisplatin
Method: as §1
as §1, with “sterile” for “sterilized”, “6 hour” for “6-hour”

MDA-MB-231 (LUNG1) = experiment: IC50 on cell monolayers (MTT assay); format: cell-based, human; conditions: 6-hour incubation, read-out: IC50 of free cisplatin
Method: as §1
as §1, with “sterile” for “sterilized”, “6 hour” for “6-hour”

MDA-MB-231 (PRI3) = experiment: IC50 on cell monolayers (MTT assay); format: cell-based, human; conditions: 6-hour incubation, read-out: IC50 of free cisplatin
Method: as §1
as §1, with “sterile” for “sterilized”, “6 hour” for “6-hour”

MDA-MB-436 (ATCC) = experiment: IC50 on cell monolayers (MTT assay); format: cell-based, human; conditions: 6-hour incubation, read-out: IC50 of free cisplatin
Method: as §1
as §1, with “sterile” for “sterilized”, “6 hour” for “6-hour”

[1] = Leite et al., 2012; cited from earlier work
[2] = test system: spontaneous MDA-MB-231 axillary lymph node (ALN) metastases; experiment: Growth control of spontaneous TNBC metastases in vivo (cisplatin); conditions: 7.5 mg/Kg i.v., three times in five-day intervals

`N.N.[Cl][Pt][Cl]` [free cisplatin, cis-diamminedichloroplatinum (II)] gave an IC50 (MDA-MB-231 (ALN2); pH 6.5) of 40.2 ± 7.4 µM, an IC50 (MDA-MB-231 (ALN2); pH 7.4) of 39.2 ± 5.9 µM and an IC50 (MDA-MB-231 (ATCC); pH 6.5) of 47.7 ± 4.4 µM. The IC50 (MDA-MB-231 (ATCC); pH 7.4) was 45.2 ± 8.2 µM, the IC50 (MDA-MB-231 (LUNG1); pH 6.5) was 42.6 ± 6.2 µM and the IC50 (MDA-MB-231 (LUNG1); pH 7.4) was 40.2 ± 6.4 µM. It also gave an IC50 (MDA-MB-231 (PRI3); pH 6.5) of 37.7 ± 13.4 µM, an IC50 (MDA-MB-231 (PRI3); pH 7.4) of 32.4 ± 7.8 µM and an IC50 (MDA-MB-436 (ATCC); pH 6.5) of 3.2 ± 0.73 µM. For the same compound, the IC50 (MDA-MB-436 (ATCC); pH 7.4) was 2.46 ± 0.9 µM, the “reported MTD” value [1] was 7.5 mg/kg and the animal survival [2] was “shortest animal survival”. The “animals euthanized because of weight loss” value [2] was 100%.
